Measured values taken from paper PMC11672137, “High-Affinity Lectin Ligands Enable the Detection of Pathogenic Pseudomonas aeruginosa Biofilms: Implications for Diagnostics and Therapy” (JACS Au, 2024).

Tests used:
LecA = target: T1, LecA (Pseudomonas aeruginosa, UniProt Q05097); test: Direct binding assay based on fluorescence polarization, titration with LecA
T1 construct: made in house
Procedure: The binding affinities of imaging probes 2–4 for LecA were determined using a direct binding assay based on fluorescence polarization (FP).[47]
(A, C) Monovalent LecA imaging probes 2–4 based on phenyl β-D-galactoside (1) were titrated with LecA. […] (E) Xyloside-fluorescein conjugate (8) and azido fluorescein (9) served as negative controls in titrations with LecA and LecB, respectively. Averages and standard deviations were determined from at least three independent titrations of technical triplicates each.
Direct binding affinity determination of LecA and LecB imaging probes was performed with direct titration of protein and imaging probes in TBS/Ca2+ buffer. Protein dilution series was prepared in 96 well plates and 10 µL of each dilution in triplicates were mixed with 10 µL of fluorescent compound (20 nM) in 384-well microtiter plates (Greiner Bio-One, Germany, cat no 781900). The plates were centrifuged (1 min, 500 g), sealed and incubated for 2 h in dark wet chamber under gentle shaking. Fluorescence was measured on a PheraStar FS plate reader (BMG Labtech GmbH, Germany) with excitation filters at 485 nm and emission filters at 535 nm. The data were analysed with MARS Data Analysis Software (BMG Labtech GmbH, Germany) to calculate Kd values.

[1] = tested on: P. aeruginosa PAO1 biofilm aggregates; test: In vitro biofilm staining under static conditions (CLSM); format: cell-based, Pseudomonas aeruginosa; details: 10 μM probe
Procedure: The ability of LecA- and LecB-targeting probes to image P. aeruginosa biofilms was evaluated in vitro. P. aeruginosa PAO1, constitutively expressing mCherry from plasmid pMP7605,[56] was cultivated in microtiter plates under shaking conditions to form biofilm aggregates, as reported previously.[43] Fluorescein-carbohydrate conjugates were added to the bacterial culture to reach a final concentration of 10 μM and biofilms were analyzed by confocal laser scanning microscopy (CLSM) under static conditions (Figures 2 and S4). […] To our surprise, the intended negative control xyloside 8 also stained the P. aeruginosa biofilms (Figures 2C and S4). In all cases, the green signal originating from the fluorescein conjugates was not homogeneously spread over the entire structure of the biofilm aggregates, but a certain heterogeneity was observed across biofilm regions as bright spots. Further, the intensity of staining varied between replicates (see the Supporting Information for individual experiments). […] Instead, only a very faint green shadow was detected for 9 indicating its suitability as a negative control. Thus, the observed biofilm staining with imaging probes 2, 3, 6, 7 and also xyloside 8 was carbohydrate dependent and while 2, 3 and 6, 7 are ligands of LecA and LecB, respectively, the molecular mechanism of xyloside 8 remains elusive.
One representative image of stained aggregates is shown. […] Scale bar = 50 μm.
P. aeruginosa PAO1 expressing the red fluorescent protein mCherry (pMP7605)23 was selected for this study. For this, P. aeruginosa PAO1 (DSM 19880, Braunschweig, Germany) was transformed with the mCherry plasmid (pMP7605).23 Bacteria were stored at -80 °C. For experimental use, bacteria were streaked on lysogeny broth (LB) agar (1% tryptone, 1% NaCl, 0,5% yeast extract, 1.3% agar) containing 60 µg/mL gentamicin (Gm) and incubated at 37 °C overnight. For liquid cultures, bacterial colonies were transferred from LB agar to 10 mL LB (1% tryptone, 1% NaCl, 0,5% yeast extract) containing 60 µg/mL Gm and incubated at 37 °C and 180 rpm overnight. For exponential growth, 10 mL of LB containing 60 µg/mL Gm were inoculated with P. aeruginosa PAO1 mCherry (pMP7605)23 using an overnight liquid culture […]
In vitro biofilm staining under static conditions
Biofilm staining experiments were performed in analogy to Wagner et al. with P. aeruginosa PAO1 pMP7605 (Figure S4).23,24 Bacterial overnight cultures were inoculated from single colonies in 5 mL LB supplemented with gentamicin (120 µg/mL) and grown at 37 °C and 180 rpm. The bacterial overnight cultures were then diluted to OD600 of 0.02 with LB and 500 µL of culture per well were transferred to 24-well plate (24CG, Art. No. 5231 or 24FC, Art. No. 3231). The biofilm was grown under shaking conditions (180 rpm) at 37 °C for 20–24 h. Biofilm aggregates were visualized using a confocal laser scanning microscope (Leica TCS Sp8 CLSM) using a 25× numerical-aperture water objective. Z-stacks (463 x 463 μm) were recorded every 2 μm for mCherry (ex.: 561 nm, red) and for fluorescein containing imaging compounds (ex.: 488 nm, green). […]
Maximum Intensity Projections (contrast range automatically adjusted by Imaris). Only one staining experiment was carried out for imaging probes 4 and S26, all other fluorescein conjugates were analyzed in at least three independent experiments.

[2] = tested on: P. aeruginosa PAO1 biofilms; test: In vitro biofilm staining under flow conditions, compound supplementation to the medium; format: cell-based, Pseudomonas aeruginosa; details: for Biofilm staining after accumulation: 500 nM in medium, 4 h, fluorescence microscope; for Biofilm staining by CLSM after accumulation: 500 nM, 4 h accumulation, without washing
Procedure: P. aeruginosa biofilms were grown under flow conditions and observed by fluorescence microscopy in analogy to Ghanbari et al.[66] To this end, P. aeruginosa PAO1 expressing the red fluorescent protein mCherry[56] was diluted to an OD600 nm of 0.1 and injected into the microfluidics device. After a 30-min settling period, biofilms were grown under a constant laminar flow rate of 3 mL/h per channel. Following 48 h of incubation at 30 °C, dense and mature P. aeruginosa PAO1 biofilms were observed, which were then further used for analysis of the imaging probes.
To circumvent these technical drawbacks, the addition of compounds to the medium reservoir and retention at the biofilm was pursued. Imaging compounds were added to the medium reservoirs at a concentration of 500 nM, which were continuously pumped (3 mL/h) through the flow cell for 4 h. Compound accumulation at mature P. aeruginosa biofilms was immediately analyzed using fluorescence microscopy. Afterwards, the medium was exchanged, and the biofilms were washed for 30 min (3 mL/h, no compound) to monitor the retention (Figure 5). Furthermore, an analysis using CLSM was also performed after 4 h of accumulation without washing (Figures 5 and S22).
Figure 5 Staining of P. aeruginosa PAO1 biofilms grown under flow conditions with compound supplementation to the medium. Biofilm staining with (A) fluorescein divalent probe 17, (B) fluorescein control 24, (C) BODIPY divalent probe 19, and (D) BDP FL azide control 18 was monitored after 4 h of accumulation under constant flow (3 mL/h) of LB media containing 500 nM of respective compound. Retention of imaging compounds is shown after a subsequent wash period for 30 min with medium (3 mL/h, no compound). Images were recorded by using a fluorescence microscope. CLSM was performed for (E) BODIPY divalent probe 19 and the control (F) BDP FL azide 18 after 4 h of accumulation. Green signal originates from fluorescently labeled probes 17 and 19 and controls 24 and 18. P. aeruginosa constitutively expressing mCherry from pMP7605^56 is shown in red. Z-Stack size, 2 μm. Scale bar = 50 μm.
In vitro biofilm staining under flow conditions
The flow cell experiment was set up in analogy to Ghanbari et al. and in this study, optimized and established for biofilm staining.25 In principle, the experiment is based on an inlet connected to a medium source, a peristaltic pump providing constant medium flow, a flow chamber enabling analysis of bacterial growth and an outlet (waste container/bottle).
The medium used in the flow system was LB diluted by factor 5 containing 60 µg/mL
Gm. Silicone tubings 1.6 mm (ibidi, Germany) were used transporting medium from inlet to the peristaltic pump (Watson-Marlow Fluid Technology Solutions). Stopper hoses (CarlRoth) placed in peristaltic pump were coupled to silicone tubes via connectors (ibidi, Germany).
Stopper hoses are connected to bubble traps (obtained by Claus Sternberg, DTU Copenhagen) via 0.8 mm silicone tubing (ibidi, Germany). Bubble traps were used to remove air from the medium flow and to avoid biofilm disruption. Downstream from the bubble traps, the flow cell (μ-Slide VI 0.4 ibiTreat, ibidi, Germany) was placed into the system and connected to 1.6 mm silicone tubes (ibidi, Germany). The outlet is leading the medium from flow chamber to a waste […]
In order to inoculate the flow cell with P. aeruginosa PAO1 mCherry (pMP7605)23 the silicone tubes upstream and downstream of the flow chamber were pinched off by using commercial plastic clamps. The medium flow was stopped and the flow cell was inoculated by injecting 300 µL of the bacterial suspension (OD600nm of 0.1) into the silicone tubing upstream of the flow chamber. For this, a cannula (0.30 x 12 mm, Sterican) was used. The injection point was sealed with silicone glue. After bacterial settling time of 30 min, the flow was started again and clamps were removed. Growth temperature was regulated by using a heat system (ibidi, […]
Germany). […]

[3] = tested on: P. aeruginosa PAO (DSM 1707) lung infection; test: Optical in vivo imaging and ex situ organ analysis in acute P. aeruginosa airway infection model; parameters: species or system mice
Procedure: Encouraged by the high affinity of the imaging probes and their ability to stain P. aeruginosa biofilms in vitro, we further investigated the compounds in vivo using an acute P. aeruginosa airway infection model in mice. Intratracheal administration of P. aeruginosa PAO (DSM 1707) results in a local infection that is mainly restricted to the lungs. With the infection dose of 2 × 10^6 cfu/50 μL chosen here, the number of bacteria peaks at 6 h after infection before the host immune system clears the bacteria.[70]
Then, imaging probes, divalent LecA-targeting probe 21, LecB-targeting probe 22 and the control sulfo-Cy7 (free acid), were administered intravenously to the tail vein 2 h post infection. […] This accumulation in the lungs was then confirmed by a subsequent ex vivo analysis of the organs.
Figure 6 Optical in vivo imaging in mice and ex situ analysis of organs with P. aeruginosa PAO acute lung infection. In vivo imaging of mice with P. aeruginosa intratracheal infection (right) or uninfected control mice (left) after intravenous administration of imaging probes 2 h post infection: (A) 50 nmol/20 g divalent LecA probe 21 or (B) 100 nmol/20 g LecB probe 22. Then, explanted lungs were analyzed for fluorescence intensity, shown as a false color scale in (C) divalent LecA probe 21 (left: uninfected, right: infected) and (D) LecB probe 22 (left: uninfected; middle: uninfected control without dye; right: infected). (E) Quantification of the average radiant efficiency of the divalent LecA ligand 21 and the control sulfo-Cy7 free acid in the lungs of uninfected and infected mice. Duplicate data points and the mean are depicted. (F) Average radiant efficiency was quantified for the LecB imaging probe 22 in lungs of infected and uninfected mice. In addition, (G) further mouse organs were explanted after i.v. injection of 21 (50 nmol/20 g) or control sulfo-Cy7 free acid (50 nmol/20 g) and imaged. Organs of uninfected (left), infected (right) mice, and uninfected mice without any dye (upper middle on the sulfo-Cy7 free acid rows) were compared. Fluorescence intensities are shown as false color pictures. […]
Lung infection model and in vivo imaging of P. aeruginosa
C57BL/6J and albino (Tyrc2J) C57BL/6 mice were bred and housed at the Central Animal Facility, Hannover Medical School, Germany. Animal experiments were performed with permission number: 33.9-42502-04-16/2072 from the Lower Saxony State Office for Consumer Protection and Food Safety (LAVES), Germany. Mice were anesthetized with 3% isoflurane (CP Pharma) and infected intratracheally with 2x10^6 cfu/50 µL of P. aeruginosa PAO (DSM1707, Braunschweig, Germany) as described previously.26
50 – 100 nmol sulfo-Cyanine7-compound (divalent LecA probe 21; LecB probe 22; control sulfoCy7 free acid, CAS no.: 2104632-30-4, Lumiprobe; control sulfoCy7 azide, 20, Lumiprobe) per 20 g mouse was injected intravenously 2 h after infection. Optical imaging was performed 4 – 7 h after compound administration. Mice were anesthetized with 3% isoflurane […]
an in vivo imaging system (IVIS SpectrumCT, PerkinElmer). Subsequently mice were euthanized and organs were imaged (675/760 nm) ex situ individually. To enhance Cyanine7 specific fluorescent signal spectral unmixing was performed on in vivo images using LivingImage 4.7 (PerkinElmer). […]

T1 sequence (Q05097 whole entry): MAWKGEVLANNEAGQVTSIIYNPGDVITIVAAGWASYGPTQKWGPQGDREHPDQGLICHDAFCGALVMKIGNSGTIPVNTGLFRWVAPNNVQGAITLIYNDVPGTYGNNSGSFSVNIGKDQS

Structure (SMILES) | Kd (LecA) | Staining of biofilm aggregates [1] | Biofilm staining after accumulation ([2]; 3 mL/h) | Biofilm staining by CLSM after accumulation [2] | also measured
O=C1OC2(c3ccc(O)cc3Oc3cc(O)ccc32)c2ccc(NC(=S)NCCOCCOCCOCCn3cc(CNc4cccc(S[C@@H]5O[C@H](CO)[C@H](O)[C@H](O)[C@H]5O)c4)nn3)cc21 [compound 2] | 5.3 ± 0.7 µM | showed staining | – | – | –
O=C1OC2(c3ccc(O)cc3Oc3cc(O)ccc32)c2ccc(NC(=S)NCCOCCOCCOCCn3cc(CNc4ccc(S[C@@H]5O[C@H](CO)[C@H](O)[C@H](O)[C@H]5O)cc4)nn3)cc21 [compound 3] | 11.6 ± 0.7 µM | showed staining | – | – | –
O=C1OC2(c3ccc(O)cc3Oc3cc(O)ccc32)c2ccc(NC(=S)NCCOCCOCCOCCn3cc(COc4ccc(S[C@@H]5O[C@H](CO)[C@H](O)[C@H](O)[C@H]5O)cc4)nn3)cc21 [compound 4] | 8.5 ± 0.8 µM | – | – | – | –
CC1=CC(C)=[N+]2C1=Cc1ccc(CCC(=O)NCCCN=[N+]=[N-])n1[B-]2(F)F [compound 18, BDP FL azide, reference compound] | – | – | did not show any enrichment | no signal was observed | –
CC1=CC(C)=[N+]2C1=Cc1ccc(CCC(=O)NCCCn3cc(CCN(Cc4ccc(NC(=O)CCc5ccc(O[C@@H]6O[C@H](CO)[C@H](O)[C@H](O)[C@H]6O)cc5)cc4)Cc4ccc(NC(=O)CCc5ccc(O[C@@H]6O[C@H](CO)[C@H](O)[C@H](O)[C@H]6O)cc5)cc4)nn3)n1[B-]2(F)F [compound 19] | – | – | strong staining was observed | clear and strong staining predominantly at the periphery of large biofilm aggregates | Retention at biofilm after wash ([2]; after 4 h accumulation at 500 nM, 30 min wash, 3 mL/h, no compound): the strong signal was still observed
C[C@@H]1O[C@H](CNS(=O)(=O)c2ccc(-c3cn(CCCNC(=O)CCCCC[N+]4=C(/C=C/C5=CC(=C/C=C6/N(C)c7ccc(S(=O)(=O)O)cc7C6(C)C)/CCC5)C(C)(C)c5cc(S(=O)(=O)[O-])ccc54)nn3)s2)[C@@H](O)[C@H](O)[C@@H]1O [compound 22] | – | – | – | – | Average fluorescence radiant efficiency of explanted lungs ([3]; ex vivo analysis of organs, infected vs uninfected mice): elevated compared with uninfected mice; Cyanine7 signal in lung area, optical in vivo imaging ([3]; i.v. 2 h post infection, infected vs uninfected mice, 21 50 nmol/20 g, 22 100 nmol/20 g): elevated Cyanine7 signals in the area of the lung of infected mice compared to uninfected mice; Fluorescence ex vivo in lungs of uninfected animals compared to control sulfo-Cyanine7 (free acid) ([3]; uninfected mice, ex vivo quantification): a certain accumulation in the lungs of uninfected animals
